Source: patent US20180289008A1, “METHODS FOR WILDFIRE CONTROL, INVASIVE PLANT CONTROL, AND RESIDUAL CONTROL OF INVASIVE PLANTS” (priority 2017, published 2018)

What was measured:
[1] = test system: invasive winter annual grass (downy brome, feral rye, Japanese brome); assay: Invasive winter annual grass field efficacy studies, biomass as percent of non-treated (Sites 1 and 2 combined); assay type: in vivo, Bromus tectorum, Secale cereale, Bromus japonicus; settings: 1 YAT, across all five application timings, 73 and 102 g·ai·ha^−1; POST treatments with glyphosate
Method: In year 1, field experiments were conducted to compare the effectiveness of indaziflam and imazapic for long-term invasive winter annual grass control, and to evaluate the response of the native plant communities. The experiments were established at two sites on the Colorado Front Range dominated by invasive winter annual grasses. Site 1 (lat 40° 15′2″N, long 105° 12′56″W) was infested with equal amounts of downy brome and Japanese brome. Site 2 (lat 40° 43′23″N, long 104° 55′58″W) was infested with feral rye. These two sites were approximately 58 km apart. Site 1 was located on Rabbit Mountain Open Space (Boulder County). Site 2 was located on a Colorado Parks and Wildlife Area (Larimer County). Before herbicide application in July, visual estimates were made across the entire study area of percentage of living canopy cover for all species present at both sites.
Site 1 was characterized by ˜80-100% downy brome and Japanese brome canopy cover with a dense fine-fuel layer, e.g., thatch, (2 to 5 cm), and a scattered stand of co-occurring species (˜0-10% canopy cover, Table 4). […]
Biomass harvests and species richness evaluations were conducted in August (year 2 and year 3) to evaluate invasive winter annual grass control and response of co-occurring species. […] Additionally, at Site 1, species richness was calculated for each treatment as a simple estimate of biological diversity. […]

[2] = test system: downy brome, common mullein, Canada thistle, teasel, houndstongue, Scotch thistle, diffuse knapweed, field bindweed; assay: Seedling control of invasive weeds versus untreated (FIG. 4A-4D); settings: in vivo
[3] = average; cited from earlier work

For `Cc1ccc2c(c1)[C@H](Nc1nc(N)nc(C(C)F)n1)[C@@H](C)C2` (mixture of isomers) [Indaziflam, N2-[(1R,2S)-2,3-dihydro-2,6-dimethyl-1H-inden-1-yl]-6-[(1RS)-1-fluoroethyl]-1,3,5-triazine-2,4-diamine], which “invasive winter annual grass control” value [1] is on record?
The value was greater than 99%.

And the “seedling control of invasive weeds compared with the untreated (FIG. 4A-4D)” value [2]?
The value was “improved seedling control of invasive weeds”.

What about the water solubility [3] of the same compound?
Its water solubility is 3.6 µg/mL.
